pIC50: −log10 of the molar value. Where a SMILES comes first, the peptide text is derived from it. Bridges are numbered along the chain shown (N, C = ends). [ ]: non-standard residue; d: D form. The star is where a group is joined. Bip = N[C@@H](Cc1ccc(-c2ccccc2)cc1)C(=O)O; Ala(cPent) = N[C@@H](CC1CCCC1)C(=O)O; 4Pal = N[C@@H](Cc1ccncc1)C(=O)O; Cha = N[C@@H](CC1CCCCC1)C(=O)O; Cit = NC(=O)NCCC[C@H](N)C(=O)O; Gly(cPr) = N[C@H](C(=O)O)C1CC1; Chg = N[C@H](C(=O)O)C1CCCCC1; dNle = CCCC[C@@H](N)C(=O)O; Carboxymethyl = O=C(O)C*; Orn = NCCC[C@H](N)C(=O)O; Dab = NCC[C@H](N)C(=O)O; Dap = NC[C@H](N)C(=O)O
The compounds below were run against T1, human PD-1 / PD-L1-Ig binding on Jurkat cell line over-expressing human PD-1 (Jurkat-PD-1) (Homo sapiens, UniProt Q15116) (assay: Jurkat-PD-1 Cell Binding High-Content Screening Assay (CBA)). Settings: Jurkat-PD-1 cells, PE-labeled PD-L1-Ig 20 nM final; read-out: Jurkat HPD1_PDL1 IC50.
T1 construct: expressed in transfected cells; host or cells: Jurkat
Format: cell-based
In short: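 PE-PD-L1-Ig 20 nM final; cells in DMEM/10% FCS; cpd pre-incubation 2 h, 37° C; ligand 1 h; PFA fix + Hoechst 33342; high-content imaging read-out.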

T1 sequence (Q15116 25-288): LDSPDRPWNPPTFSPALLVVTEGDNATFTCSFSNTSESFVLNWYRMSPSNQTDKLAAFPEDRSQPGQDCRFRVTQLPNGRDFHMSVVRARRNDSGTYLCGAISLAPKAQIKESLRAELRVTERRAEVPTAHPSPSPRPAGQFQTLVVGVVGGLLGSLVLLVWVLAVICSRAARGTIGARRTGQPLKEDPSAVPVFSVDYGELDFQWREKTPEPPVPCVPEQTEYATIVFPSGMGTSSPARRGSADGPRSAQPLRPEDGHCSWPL

Q: With CCCC[C@H]1NC(=O)[C@H](CCCN)NC(=O)[C@H](CCCNC(N)=O)NC(=O)[C@H](Cc2ccc(-c3ccccc3)cc2)NC(=O)[C@H](C(C)C)NC(=O)[C@H](Cc2c[nH]c3ccccc23)NC(=O)[C@H](CC(=O)O)NC(=O)[C@H](Cc2ccc(OCC(=O)O)cc2)NC(=O)[C@H](CN)NC(=O)CSC[C@@H](C(=O)N[C@@H](C)C(N)=O)NC(=O)[C@H]([C@@H](C)O)NC(=O)[C@H](C(C)C)NC(=O)[C@H](CC2CCCCC2)NC(=O)[C@H](CCN)NC1=O [Compound 1700] as the compound, how does the pIC50 read?
A: 7.67

Q: How did the pIC50 turn out when CCCC[C@H]1NC(=O)[C@H](CCCN)NC(=O)[C@H](CCCNC(N)=O)NC(=O)[C@H](Cc2ccc(-c3ccccc3)cc2)NC(=O)[C@H](C(C)C)NC(=O)[C@H](Cc2c[nH]c3ccccc23)NC(=O)[C@H](CC(=O)O)NC(=O)[C@H](Cc2ccc(OCC(=O)O)cc2)NC(=O)[C@H](Cc2ccncc2)NC(=O)CSC[C@@H](C(=O)N[C@@H](C)C(N)=O)NC(=O)[C@H]([C@@H](C)O)NC(=O)[C@H](C(C)C)NC(=O)[C@H](CC2CCCCC2)NC(=O)[C@H](CCN)NC1=O [Compound 1701] was run?
A: 7.61

Q: How did the pIC50 turn out when CCCC[C@H]1NC(=O)[C@H](CCCN)NC(=O)[C@H](CCCNC(N)=O)NC(=O)[C@H](Cc2ccc(-c3ccccc3)cc2)NC(=O)[C@H](C(C)C)NC(=O)[C@H](Cc2c[nH]c3ccccc23)NC(=O)[C@H](CC(=O)O)NC(=O)[C@H](Cc2ccncc2)NC(=O)[C@H](Cc2ccc(OCC(=O)O)cc2)NC(=O)CSC[C@@H](C(=O)N[C@@H](C)C(N)=O)NC(=O)[C@H]([C@@H](C)O)NC(=O)[C@H](C(C)C)NC(=O)[C@H](CC2CCCCC2)NC(=O)[C@H](CCN)NC1=O [Compound 1702] was run?
A: 7.77

Q: With CCCC[C@H]1NC(=O)[C@H](CCCN)NC(=O)[C@H](CCCNC(N)=O)NC(=O)[C@H](Cc2ccc(-c3ccccc3)cc2)NC(=O)[C@H](C(C)C)NC(=O)[C@H](Cc2c[nH]c3ccccc23)NC(=O)[C@H](CC(=O)O)NC(=O)[C@H](Cc2ccncc2)NC(=O)[C@H](CN)NC(=O)CSC[C@@H](C(=O)N[C@@H](C)C(N)=O)NC(=O)[C@H]([C@@H](C)O)NC(=O)[C@H](C(C)C)NC(=O)[C@H](CC2CCCCC2)NC(=O)[C@H](CCN)NC1=O [Compound 1703] as the compound, how does the pIC50 read?
A: 7.60

Q: CCCC[C@H]1NC(=O)[C@H](CCCN)NC(=O)[C@H](CCCNC(N)=O)NC(=O)[C@H](Cc2ccc(-c3ccccc3)cc2)NC(=O)[C@H](C(C)C)NC(=O)[C@H](Cc2c[nH]c3ccccc23)NC(=O)[C@H](CC(=O)O)NC(=O)[C@H](Cc2ccc(O)cc2)NC(=O)[C@H](CC(N)=O)NC(=O)CSC[C@@H](C(=O)N[C@@H](C)C(N)=O)NC(=O)[C@H]([C@@H](C)O)NC(=O)[C@H](C(C)C)NC(=O)[C@H](CC2CCCCC2)NC(=O)[C@H](CCN)NC1=O [Compound 1704] ({CH2CO}-NYDWV[Bip][Cit][Orn][dNle][Dab][Cha]VTCA-NH2; thioether N-14) was tested. Which pIC50 did it give?
A: 7.45

Q: With CCCC[C@H]1NC(=O)[C@H](CCCN)NC(=O)[C@H]([C@@H](C)CC)NC(=O)[C@H](Cc2ccc(-c3ccccc3)cc2)NC(=O)[C@H](C(C)C)NC(=O)[C@H](Cc2c[nH]c3ccccc23)NC(=O)[C@H](CC(=O)O)NC(=O)[C@H](Cc2ccc(C(=O)O)cc2)NC(=O)[C@H](Cc2ccncc2)NC(=O)CSC[C@@H](C(=O)N[C@@H](C)C(N)=O)NC(=O)[C@H]([C@@H](C)O)NC(=O)[C@H](C(C)C)NC(=O)[C@H](CC2CCCCC2)NC(=O)[C@H](CCN)NC1=O [Compound 1705] as the compound, how does the pIC50 read?
A: 7.84

Q: How did the pIC50 turn out when CCCC[C@H]1NC(=O)[C@H](CCCN)NC(=O)[C@H]([C@@H](C)CC)NC(=O)[C@H](Cc2ccc(-c3ccccc3)cc2)NC(=O)[C@H](C(C)C)NC(=O)[C@H](Cc2c[nH]c3ccccc23)NC(=O)[C@H](CC(=O)O)NC(=O)[C@H](Cc2ccc(OCC(=O)O)cc2)NC(=O)[C@H](Cc2ccc(OCC(=O)O)cc2)NC(=O)CSC[C@@H](C(=O)N[C@@H](C)C(N)=O)NC(=O)[C@H]([C@@H](C)O)NC(=O)[C@H](C(C)C)NC(=O)[C@H](CC2CCCCC2)NC(=O)[C@H](CCN)NC1=O [Compound 1706] was run?
A: 7.94

Q: CCCC[C@H]1NC(=O)[C@H](CCCN)NC(=O)[C@H]([C@@H](C)CC)NC(=O)[C@H](Cc2ccc(-c3ccccc3)cc2)NC(=O)[C@H](C(C)C)NC(=O)[C@H](Cc2c[nH]c3ccccc23)NC(=O)[C@H](CC(=O)O)NC(=O)[C@H](Cc2ccc(C(=O)O)cc2)NC(=O)[C@H](Cc2ccc(OCC(=O)O)cc2)NC(=O)CSC[C@@H](C(=O)N[C@@H](C)C(N)=O)NC(=O)[C@H]([C@@H](C)O)NC(=O)[C@H](C(C)C)NC(=O)[C@H](CC2CCCCC2)NC(=O)[C@H](CCN)NC1=O [Compound 1707] was tested. Which pIC50 did it give?
A: 7.73

Q: With CCCC[C@H]1NC(=O)[C@H](CCCN)NC(=O)[C@H]([C@@H](C)CC)NC(=O)[C@H](Cc2ccc(-c3ccccc3)cc2)NC(=O)[C@H](C(C)C)NC(=O)[C@H](Cc2c[nH]c3ccccc23)NC(=O)[C@H](CC(=O)O)NC(=O)[C@H](Cc2ccc(OCC(=O)O)cc2)NC(=O)[C@H](CN)NC(=O)CSC[C@@H](C(=O)N[C@@H](C)C(N)=O)NC(=O)[C@H]([C@@H](C)O)NC(=O)[C@H](C(C)C)NC(=O)[C@H](CC2CCCCC2)NC(=O)[C@H](CCN)NC1=O [Compound 1708] as the compound, how does the pIC50 read?
A: 7.64

Q: With CCCC[C@H]1NC(=O)[C@H](CCCN)NC(=O)[C@H]([C@@H](C)CC)NC(=O)[C@H](Cc2ccc(-c3ccccc3)cc2)NC(=O)[C@H](C(C)C)NC(=O)[C@H](Cc2c[nH]c3ccccc23)NC(=O)[C@H](CC(=O)O)NC(=O)[C@H](Cc2ccc(OCC(=O)O)cc2)NC(=O)[C@H](Cc2ccncc2)NC(=O)CSC[C@@H](C(=O)N[C@@H](C)C(N)=O)NC(=O)[C@H]([C@@H](C)O)NC(=O)[C@H](C(C)C)NC(=O)[C@H](CC2CCCCC2)NC(=O)[C@H](CCN)NC1=O [Compound 1709] as the compound, how does the pIC50 read?
A: 7.98

Q: How did the pIC50 turn out when CCCC[C@H]1NC(=O)[C@H](CCCN)NC(=O)[C@H]([C@@H](C)CC)NC(=O)[C@H](Cc2ccc(-c3ccccc3)cc2)NC(=O)[C@H](C(C)C)NC(=O)[C@H](Cc2c[nH]c3ccccc23)NC(=O)[C@H](CC(=O)O)NC(=O)[C@H](Cc2ccncc2)NC(=O)[C@H](Cc2ccc(OCC(=O)O)cc2)NC(=O)CSC[C@@H](C(=O)N[C@@H](C)C(N)=O)NC(=O)[C@H]([C@@H](C)O)NC(=O)[C@H](C(C)C)NC(=O)[C@H](CC2CCCCC2)NC(=O)[C@H](CCN)NC1=O [Compound 1710] ({CH2CO}-Y(Carboxymethyl)[4Pal]DWV[Bip]I[Orn][dNle][Dab][Cha]VTCA-NH2; thioether N-14) was run?
A: 7.47

Q: With CCCC[C@H]1NC(=O)[C@H](CCCN)NC(=O)[C@H]([C@@H](C)CC)NC(=O)[C@H](Cc2ccc(-c3ccccc3)cc2)NC(=O)[C@H](C(C)C)NC(=O)[C@H](Cc2c[nH]c3ccccc23)NC(=O)[C@H](CC(=O)O)NC(=O)[C@H](Cc2ccncc2)NC(=O)[C@H](CN)NC(=O)CSC[C@@H](C(=O)N[C@@H](C)C(N)=O)NC(=O)[C@H]([C@@H](C)O)NC(=O)[C@H](C(C)C)NC(=O)[C@H](CC2CCCCC2)NC(=O)[C@H](CCN)NC1=O [Compound 1711] ({CH2CO}-[Dap][4Pal]DWV[Bip]I[Orn][dNle][Dab][Cha]VTCA-NH2; thioether N-14) as the compound, how does the pIC50 read?
A: 7.89

Q: With CCCC[C@H]1NC(=O)[C@H](CCCN)NC(=O)[C@H]([C@@H](C)CC)NC(=O)[C@H](Cc2ccc(-c3ccccc3)cc2)NC(=O)[C@H](C(C)C)NC(=O)[C@H](Cc2c[nH]c3ccccc23)NC(=O)[C@H](CC(=O)O)NC(=O)[C@H](Cc2ccc(O)cc2)NC(=O)[C@H](CC(N)=O)NC(=O)CSC[C@@H](C(=O)N[C@@H](C)C(N)=O)NC(=O)[C@H]([C@@H](C)O)NC(=O)[C@H](C(C)C)NC(=O)[C@H](CC2CCCCC2)NC(=O)[C@H](CCN)NC1=O [Compound 1712] ({CH2CO}-NYDWV[Bip]I[Orn][dNle][Dab][Cha]VTCA-NH2; thioether N-14) as the compound, how does the pIC50 read?
A: 7.60

Q: With CC(C)C[C@H]1NC(=O)[C@H](CCCN)NC(=O)[C@H](CCC(=O)O)NC(=O)[C@H](Cc2ccc(-c3ccccc3)cc2)NC(=O)[C@H](C2CCCCC2)NC(=O)[C@H](Cc2c[nH]c3ccccc23)NC(=O)[C@H](CC(=O)O)NC(=O)[C@H](Cc2ccc(OCC(=O)O)cc2)NC(=O)[C@H](CN)NC(=O)CSC[C@@H](C(=O)N[C@@H](C)C(N)=O)NC(=O)[C@H]([C@@H](C)O)NC(=O)[C@H](C(C)C)NC(=O)[C@H](CC2CCCCC2)NC(=O)[C@H](CCN)NC1=O [Compound 1714] ({CH2CO}-[Dap]Y(Carboxymethyl)DW[Chg][Bip]E[Orn][dL][Dab][Cha]VTCA-NH2; thioether N-14) as the compound, how does the pIC50 read?
A: 7.42

Q: How did the pIC50 turn out when CC(C)C[C@H]1NC(=O)[C@H](CCCN)NC(=O)[C@H](CCC(=O)O)NC(=O)[C@H](Cc2ccc(-c3ccccc3)cc2)NC(=O)[C@H](CC2CCCC2)NC(=O)[C@H](Cc2c[nH]c3ccccc23)NC(=O)[C@H](CC(=O)O)NC(=O)[C@H](Cc2ccc(OCC(=O)O)cc2)NC(=O)[C@H](CN)NC(=O)CSC[C@@H](C(=O)N[C@@H](C)C(N)=O)NC(=O)[C@H]([C@@H](C)O)NC(=O)[C@H](C(C)C)NC(=O)[C@H](CC2CCCCC2)NC(=O)[C@H](CCN)NC1=O [Compound 1715] ({CH2CO}-[Dap]Y(Carboxymethyl)DW[Ala(cPent)][Bip]E[Orn][dL][Dab][Cha]VTCA-NH2; thioether N-14) was run?
A: 7.42

Q: CC(C)C[C@H]1NC(=O)[C@H](CCCN)NC(=O)[C@H](CCC(=O)O)NC(=O)[C@H](Cc2ccc(-c3ccccc3)cc2)NC(=O)[C@H](C2CC2)NC(=O)[C@H](Cc2c[nH]c3ccccc23)NC(=O)[C@H](CC(=O)O)NC(=O)[C@H](Cc2ccc(OCC(=O)O)cc2)NC(=O)[C@H](CN)NC(=O)CSC[C@@H](C(=O)N[C@@H](C)C(N)=O)NC(=O)[C@H]([C@@H](C)O)NC(=O)[C@H](C(C)C)NC(=O)[C@H](CC2CCCCC2)NC(=O)[C@H](CCN)NC1=O [Compound 1716] ({CH2CO}-[Dap]Y(Carboxymethyl)DW[Gly(cPr)][Bip]E[Orn][dL][Dab][Cha]VTCA-NH2; thioether N-14) was tested. Which pIC50 did it give?
A: 7.60

From patent US20250163104A1, “MACROCYCLIC IMMUNOMODULATORS” (priority 2021, published 2025)
